Patent US9376425B2, “Heterocyclic compounds as MDM2 inhibitors for the treatment of cancer” (AMGEN INC., priority 2011, dated 2016)

Target: T1, human MDM2 (GST-hMDM2 aa 1-188), interaction with biotinylated-p53 (aa 1-83) (Homo sapiens, UniProt Q00987)
T1 construct: Amino acid residues 1-188 of human MDM2 were expressed; made in house; host or cells: Escherichia coli
Test: Homogenous Time-Resolved Fluorescence Assay (HTRF1 assay), inhibition of HDM2-p53 interaction
Assay type: binding
Conditions: 2.5 nM GST-hMDM2, 5 nM biotinylated-p53, 200 mM KF
Method in brief: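 GST-hMDM2 preincubated 20 min at room temperature with serially diluted compound, then biotinylated p53 (aa 1-83, AviTag-TrxA-6xHis fusion) added for 60 min. SA-XLent/anti-GST cryptate detection equilibrated >4 h; final DMSO 2%. Time-resolved fluorescence read; percent inhibition relative to nutlin-3.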

T1 sequence (Q00987 1-188): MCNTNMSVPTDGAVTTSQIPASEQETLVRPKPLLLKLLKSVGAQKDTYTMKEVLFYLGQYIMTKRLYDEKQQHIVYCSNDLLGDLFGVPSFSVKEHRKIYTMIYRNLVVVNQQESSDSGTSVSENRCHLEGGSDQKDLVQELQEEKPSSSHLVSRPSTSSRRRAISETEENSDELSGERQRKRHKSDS

Compound	IC50 [nM]
CCN1C(=O)[C@H](CC(=O)O)O[C@H](c2cccc(Cl)c2)[C@H]1c1ccc(Cl)cc1 [Example 45, 2-((2S,5R,6R)-6-(3-Chlorophenyl)-5-(4-chlorophenyl)-4-ethyl-3-oxomorpholin-2-yl)acetic acid]	800
C=CCN1C(=O)[C@@H](CC(=O)O)O[C@H](c2cccc(Cl)c2)[C@H]1c1ccc(Cl)cc1 [Example 46, 2-((2R,5R,6R)-4-Allyl-6-(3-chlorophenyl)-5-(4-chlorophenyl)-3-oxomorpholin-2-yl)acetic acid]	800
C=CCN1C(=O)[C@H](CC(=O)O)O[C@H](c2cccc(Cl)c2)[C@H]1c1ccc(Cl)cc1 [Example 47, 2-((2S,5R,6R)-4-Allyl-6-(3-chlorophenyl)-5-(4-chlorophenyl)-3-oxomorpholin-2-yl)acetic acid]	800
CCCN1C(=O)[C@@H](CC(=O)O)O[C@H](c2cccc(Cl)c2)[C@H]1c1ccc(Cl)cc1 [Example 48, 2-((2R,5R,6R)-6-(3-Chlorophenyl)-5-(4-chlorophenyl)-3-oxo-4-propylmorpholin-2-yl)acetic acid]	500
CCCN1C(=O)[C@H](CC(=O)O)O[C@H](c2cccc(Cl)c2)[C@H]1c1ccc(Cl)cc1 [Example 49, 2-((2S,5R,6R)-6-(3-Chlorophenyl)-5-(4-chlorophenyl)-3-oxo-4-propylmorpholin-2-yl)acetic acid]	600
CCC(CC)N1C(=O)[C@H](CC(=O)O)O[C@H](c2cccc(Cl)c2)[C@H]1c1ccc(Cl)cc1 [Example 53, 2-((2S,5R,6R)-6-(3-Chlorophenyl)-5-(4-chlorophenyl)-3-oxo-4-(pentan-3-yl)morpholin-2-yl)acetic acid]	100
O=C(O)C[C@@H]1O[C@H](c2cccc(Cl)c2)[C@@H](c2ccc(Cl)cc2F)N(CC2CC2)C1=O [Example 54, 2-((2S,5R,6R)-5-(4-Chloro-2-fluorophenyl)-6-(3-chlorophenyl)-4-(cyclopropylmethyl)-3-oxomorpholin-2-yl)acetic acid]	600
O=C(O)C[C@@H]1O[C@H](c2cccc(Cl)c2)[C@@H](c2ccccc2)N(CC2CC2)C1=O [Example 55, 2-((2S,5R,6R)-6-(3-Chlorophenyl)-4-(cyclopropylmethyl)-3-oxo-5-phenylmorpholin-2-yl)acetic acid]	3300
O=C(O)C[C@@H]1O[C@H](c2cccc(Cl)c2)[C@@H](c2ccc(F)cc2)N(CC2CC2)C1=O [Example 56, 2-((2S,5R,6R)-6-(3-Chlorophenyl)-4-(cyclopropylmethyl)-5-(4-fluorophenyl)-3-oxomorpholin-2-yl)acetic acid]	700
O=C(O)C[C@@H]1O[C@H](c2cccc(Cl)c2)[C@@H](c2ccc(C(F)(F)F)cc2)N(CC2CC2)C1=O [Example 57, 2-((2S,5R,6R)-6-(3-Chlorophenyl)-4-(cyclopropylmethyl)-3-oxo-5-(4-(trifluoromethyl)phenyl)morpholin-2-yl)acetic acid]	800
CCc1ccc([C@@H]2[C@@H](c3cccc(Cl)c3)O[C@@H](CC(=O)O)C(=O)N2CC2CC2)cc1 [Example 58, 2-((2S,5R,6R)-6-(3-Chlorophenyl)-4-(cyclopropylmethyl)-5-(4-ethylphenyl)-3-oxomorpholin-2-yl)acetic acid]	900
O=C(O)C[C@@H]1O[C@H](c2cccc(Cl)c2)[C@@H](c2ccc(OC(F)(F)F)cc2)N(CC2CC2)C1=O [Example 59, 2-((2S,5R,6R)-6-(3-Chlorophenyl)-4-(cyclopropylmethyl)-3-oxo-5-(4-(trifluoromethoxy)phenyl)morpholin-2-yl)acetic acid]	700
Cc1ccc([C@@H]2[C@@H](c3cccc(Cl)c3)O[C@@H](CC(=O)O)C(=O)N2CC2CC2)cc1 [Example 60, 2-((2S,5R,6R)-6-(3-Chlorophenyl)-4-(cyclopropylmethyl)-3-oxo-5-(p-tolyl)morpholin-2-yl)acetic acid]	700
Cc1ccc([C@@H]2[C@@H](c3cccc(Cl)c3)O[C@H](CC(=O)O)C(=O)N2CC2CC2)cc1 [Example 61, 2-((2R,5R,6R)-6-(3-Chlorophenyl)-4-(cyclopropylmethyl)-3-oxo-5-(p-tolyl)morpholin-2-yl)acetic acid]	600
O=C(O)C[C@H]1O[C@H](c2cccc(Cl)c2)[C@@H](c2ccccc2)N(CC2CC2)C1=O [Example 63, 2-((2R,5R,6R)-6-(3-Chlorophenyl)-4-(cyclopropylmethyl)-3-oxo-5-phenylmorpholin-2-yl)acetic acid]	9100
O=C(O)C[C@H]1O[C@H](c2cccc(Cl)c2)[C@@H](c2ccc(F)cc2)N(CC2CC2)C1=O [Example 64, 2-((2R,5R,6R)-6-(3-Chlorophenyl)-4-(cyclopropylmethyl)-5-(4-fluorophenyl)-3-oxomorpholin-2-yl)acetic acid]	1500
O=C(O)C[C@H]1O[C@H](c2cccc(Cl)c2)[C@@H](c2ccc(OC(F)(F)F)cc2)N(CC2CC2)C1=O [Example 65, 2-((2R,5R,6R)-6-(3-Chlorophenyl)-4-(cyclopropylmethyl)-3-oxo-5-(4-(trifluoromethoxy)phenyl)morpholin-2-yl)acetic acid]	1100
CC(C)c1ccc([C@@H]2[C@@H](c3cccc(Cl)c3)O[C@H](CC(=O)O)C(=O)N2CC2CC2)cc1 [Example 66, 2-((2R,5R,6R)-6-(3-Chlorophenyl)-4-(cyclopropylmethyl)-5-(4-isopropylphenyl)-3-oxomorpholin-2-yl)acetic acid]	13500
